Test results reported in patent US7015329B2 (Janssen Pharmaceutica N. V., priority 2003, dated 2006).

How the values were obtained:
Assay type in all cases: cell-based
Details in all cases: 18–24 hrs
PPAR alpha = target: T1, PPAR alpha (Homo sapiens, UniProt Q07869); assay: Transfection assay for PPAR receptors (GAL4-LBD luciferase reporter), PPAR alpha
T1 construct: expressed in transfected cells; host or cells: HEK293
T1 sequence (Q07869 239-466 limits assumed): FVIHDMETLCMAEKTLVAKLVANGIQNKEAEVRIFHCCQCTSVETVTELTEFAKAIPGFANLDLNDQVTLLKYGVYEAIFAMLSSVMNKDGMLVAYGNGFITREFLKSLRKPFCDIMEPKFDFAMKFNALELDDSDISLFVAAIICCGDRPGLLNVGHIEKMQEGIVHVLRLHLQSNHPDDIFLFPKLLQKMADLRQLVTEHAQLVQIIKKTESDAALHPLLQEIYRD
Protocol: (§1) Transfection Assay Method for PPAR Receptors
(§2) HEK293 cells were grown in DMEM/F12 medium supplemented with 10% FBS and glutamine (Invitrogen) and incubated in a 5% CO2 incubator at 37° C. The cells were co-transfected using DMRIE-C reagent (Invitrogen) in serum free medium (Opti-MEM, Invitrogen) with two mammalian expression plasmids, one containing the DNA sequence coding for the ligand binding domains of either PPARαg or d fused to the yeast GAL4 DNA binding domain and the other containing the promoter sequence of the yeast GAL4 (UAS) fused to the firefly luciferase cDNA reporter. The next day, the medium was changed to DMEM/F12 medium supplemented with 5% charcoal treated serum (Hyclone) and glutamine. After 6 hrs the cells were trypsinized and seeded at a density of 50,000 cells/well into 96 well plates and incubated overnight as above. The cells were then treated with -test compounds or vehicle and incubated for 18–24 hrs as above. Luciferase reporter activity was measured using the Steady-Glo Luciferase Assay Kit from Promega. DMRIE-C Reagent was purchased from GIBCO Cat. No.10459-014. OPTI-MEM I Reduced Serum Medium was purchased from GIBCO (Cat. No. 31985). Steady-Glo Luciferase Assay Kit was purchased from Promega (Part#E254B).
A variety of example compounds have been made and tested, with a range of in vitro results. Below are representative compounds and data; in some cases, where multiple EC50's are shown, multiple measurements were taken. Naturally, different compounds in Formula (I) may have not have activities identical to any one compound below.

PPAR delta = target: T2, PPAR delta (Homo sapiens, UniProt Q03181); assay: Transfection assay for PPAR receptors (GAL4-LBD luciferase reporter), PPAR delta
T2 construct: expressed in transfected cells; host or cells: HEK293
T2 sequence (Q03181 211-439 limits assumed): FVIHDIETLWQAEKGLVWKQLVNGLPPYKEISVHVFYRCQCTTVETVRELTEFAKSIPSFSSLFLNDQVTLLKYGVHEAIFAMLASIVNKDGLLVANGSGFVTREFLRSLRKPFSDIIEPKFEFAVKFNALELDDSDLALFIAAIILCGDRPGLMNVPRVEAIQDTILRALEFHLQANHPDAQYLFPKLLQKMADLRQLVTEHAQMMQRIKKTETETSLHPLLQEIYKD
Protocol: as §1
as §2, with “OPTI-MEM I Reduced Serum Medium was purchased from GIBCO (Cat. No. 31985).” left out

PPAR gamma = target: T3, PPAR gamma (Homo sapiens, UniProt P37231); assay: Transfection assay for PPAR receptors (GAL4-LBD luciferase reporter), PPAR gamma
T3 construct: expressed in transfected cells; host or cells: HEK293
T3 sequence (P37231 238-503 limits assumed): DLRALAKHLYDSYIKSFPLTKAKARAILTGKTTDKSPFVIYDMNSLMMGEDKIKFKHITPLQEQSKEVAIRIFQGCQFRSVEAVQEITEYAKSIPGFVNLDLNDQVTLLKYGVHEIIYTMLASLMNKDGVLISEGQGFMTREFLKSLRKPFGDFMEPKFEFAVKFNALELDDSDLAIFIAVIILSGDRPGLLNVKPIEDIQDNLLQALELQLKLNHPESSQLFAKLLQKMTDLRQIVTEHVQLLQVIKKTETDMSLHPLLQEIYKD
Protocol: as §1
as §2, with “OPTI-MEM I Reduced Serum Medium was purchased from GIBCO (Cat. No. 31985).” left out

[1] = Table 1, HEK293 cells co-transfected with PPAR LBD-GAL4 and GAL4 (UAS) luciferase reporter
[2] = Table 2, compounds of interest, HEK293 cells, PPAR LBD-GAL4 luciferase reporter

| EC50 (PPAR alpha; [1]) [µM] | EC50 (PPAR delta; [1]) [µM] | EC50 (PPAR gamma; [1]) [µM] | EC50 (PPAR alpha; [2]) [µM] | EC50 (PPAR delta; [2]) [µM] | EC50 (PPAR gamma; [2]) [µM] | Compound |
| --- | --- | --- | --- | --- | --- | --- |
| 0.155 | 0.02 | – | – | – | – | CC(C)(Oc1ccc(SCc2nc(-c3ccc(C(F)(F)F)cc3)ns2)cc1)C(=O)O [Compound 2, 2-Methyl-2-{4-[3-(4-trifluoromethyl-phenyl)-[1,2,4]thiadiazol-5-ylmethylsulfanyl]-phenoxy}-propionic acid] |
| > 3 | 0.229 | > 3 | – | – | – | Cc1cc(SCc2nsc(-c3ccc(Cl)c(Cl)c3)n2)ccc1OC(C)(C)C(=O)O [Compound 19, 2-{4-[5-(3,4-Dichloro-phenyl)-[1,2,4]thiadiazol-3-ylmethylsulfanyl]-2-methyl-phenoxy}-2-methyl-propionic acid] |
| 0.297 | 0.148 | > 3 | – | – | – | Cc1ccc(-c2nsc(COc3ccc(OC(C)(C)C(=O)O)c(C)c3)n2)cc1Cl [Compound 20, 2-{4-[3-(3-Chloro-4-methyl-phenyl)-[1,2,4]thiadiazol-5-ylmethoxy]-2-methyl-phenoxy}-2-methyl-propionic acid] |
| – | – | – | > 3 | 0.412 | > 3 | Cc1cc([S+]([O-])Cc2nc(-c3ccc(Cl)c(Cl)c3)ns2)ccc1OC(C)(C)C(=O)O (stereo not shown) [Compound a, 2-{4-[3-(3,4-Dichloro-phenyl)-[1,2,4]thiadiazol-5-ylmethanesulfinyl]-2-methyl-phenoxy}-2-methyl-propionic acid] |
| – | – | – | > 1 | – | > 3 | Cc1cc(SCc2cc(-c3ccc(C(F)(F)F)cc3)ns2)ccc1OCC(=O)O [Compound c, {2-Methyl-4-[3-(4-trifluoromethyl-phenyl)-isothiazol-5-ylmethylsulfanyl]-phenoxy}-acetic acid] |
| > 3 | 0.237 | > 3 | – | – | – | Cc1cc(SCc2nsc(-c3ccc(Cl)cc3)n2)ccc1OC(C)(C)C(=O)O [Compound 18, 2-{4-[5-(4-Chloro-phenyl)-[1,2,4]thiadiazol-3-ylmethylsulfanyl]-2-methyl-phenoxy}-2-methyl-propionic acid] |
| – | – | – | > 3 | 0.15 | > 3 | Cc1cc(SCc2csnc2-c2ccc(C(F)(F)F)cc2)ccc1OCC(=O)O [Compound d, {2-Methyl-4-[3-(4-trifluoromethyl-phenyl)-isothiazol-4-ylmethylsulfanyl]-phenoxy}-acetic acid] |
| 0.104 | 0.013 | > 3 | – | – | – | Cc1cc(SCc2nc(-c3ccc(Cl)c(Cl)c3)ns2)ccc1OC(C)(C)C(=O)O [Compound 9, 2-{4-[3-(3,4-Dichloro-phenyl)-[1,2,4]thiadiazol-5-ylmethylsulfanyl]-2-methyl-phenoxy}-2-methyl-propionic acid] |
| 0.222 | 0.047 | > 3 | – | – | – | Cc1ccc(-c2nsc(CSc3ccc(OC(C)(C)C(=O)O)c(C)c3)n2)cc1 [Compound 5, 2-Methyl-2-[2-methyl-4-(3-p-tolyl-[1,2,4]thiadiazol-5-ylmethylsulfanyl)-phenoxy]-propionic acid] |
| 0.115 | 0.093 | – | – | – | – | Cc1ccc(-c2nsc(CSc3ccc(OC(C)(C)C(=O)O)c(C)c3)n2)cc1C [Compound 11, 2-{4-[3-(3,4-Dimethyl-phenyl)-[1,2,4]thiadiazol-5-ylmethylsultanyl]-2-methyl-phenoxy}-2-methyl-propionic acid] |
| 0.034 | 0.0052 | 0.64 | – | – | – | Cc1cc(SCc2nc(-c3ccc(C(F)(F)F)c(F)c3)ns2)ccc1OC(C)(C)C(=O)O [Compound 13, 2-{4-[3-(3-Fluoro-4-trifluoromethyl-phenyl)-[1,2,4]thiadiazol-5-ylmethylsulfanyl]-2-methyl-phenoxy}-2-methyl-propionic acid] |
| 0.656 | 0.058 | – | – | – | – | Cc1cc(SCc2nsc(-c3ccc(OC(F)(F)F)cc3)n2)ccc1OC(C)(C)C(=O)O [Compound 17, 2-Methyl-2-{2-methyl-4-[5-(4-trifluoromethoxy-phenyl)-[1,2,4]thiadiazol-3-ylmethylsulfanyl]-phenoxy}-propionic acid] |
| 0.0935 | 0.0123 | > 3 | – | – | – | Cc1cc(OCc2nc(-c3ccc(OC(F)(F)F)cc3)ns2)ccc1OC(C)(C)C(=O)O [Compound 24, 2-Methyl-2-{2-methyl-4-[3-(4-trifluoromethoxy-phenyl)-[1,2,4]thiadiazol-5-ylmethoxy]-phenoxy}-propionic acid] |
| 0.468 | 0.01 | – | – | – | – | Cc1cc(SCc2nc(-c3ccc(C(F)(F)F)cc3)ns2)ccc1OCC(=O)O [Compound 1, {2-Methyl-4-[3-(4-trifluoromethyl-phenyl)-[1,2,4]thiadiazol-5-ylmethylsulfanyl]-phenoxy}-acetic acid] |
| – | – | – | 2.21 | – | > 3 | Cc1cc(SCc2cc(-c3ccc(C(F)(F)F)cc3)on2)ccc1OCC(=O)O [Compound g, {2-Methyl-4-[5-(4-trifluoromethyl-phenyl)-isoxazol-3-ylmethylsulfanyl]-phenoxy}-acetic acid] |
| 0.094 | – | > 3 | – | – | – | Cc1cc(OCc2nc(-c3ccc(C(F)(F)F)cc3)ns2)ccc1OC(C)(C)C(=O)O [Compound 23, 2-Methyl-2-{2-methyl-4-[3-(4-trifluoromethyl-phenyl)-[1,2,4]thiadiazol-5-ylmethoxy]-phenoxy}-propionic acid] |
| 0.033 | – | 11.6 | – | – | – | Cc1cc(SCc2nc(-c3ccc(OC(F)(F)F)cc3)ns2)ccc1OC(C)(C)C(=O)O [Compound 4, 2-Methyl-2-{2-methyl-4-[3-(4-trifluoromethoxy-phenyl)-[1,2,4]thiadiazol-5-ylmethylsulfanyl]-phenoxy}-propionic acid] |
| 0.087 | 0.0075 | – | – | – | – | Cc1cc(SCc2nc(-c3ccc(C(F)(F)F)cc3)ns2)ccc1OC(C)(C)C(=O)O [Compound 3, 2-Methyl-2-{2-methyl-4-[3-(4-trifluoromethyl-phenyl)-[1,2,4]thiadiazol-5-ylmethylsulfanyl]-phenoxy}-propionic acid] |
| – | – | – | > 3 | – | > 3 | Cc1cc(SCc2cc(-c3ccc(C(F)(F)F)cc3)no2)ccc1OCC(=O)O [Compound f, {2-Methyl-4-[3-(4-trifluoromethyl-phenyl)-isoxazol-5-ylmethylsulfanyl]-phenoxy}-acetic acid] |
| – | – | – | > 3 | – | > 3 | Cc1cc(SCc2cc(-c3ccc(C(F)(F)F)cc3)sn2)ccc1OCC(=O)O [Compound b, {2-Methyl-4-[5-(4-trifluoromethyl-phenyl)-isothiazol-3-ylmethylsulfanyl]-phenoxy}-acetic acid] |
| 0.0373 | – | 0.465 | – | – | – | Cc1cc(SCCc2nc(-c3ccc(C(F)(F)F)cc3)ns2)ccc1OC(C)(C)C(=O)O [Compound 28, 2-Methyl-2-(2-methyl-4-{2-[3-(4-trifluoromethyl-phenyl)-[1,2,4]thiadiazol-5-yl]-ethylsulfanyl}-phenoxy)-propionic acid] |

| Compound | EC50 (PPAR alpha; [1]) [µM] | EC50 (PPAR delta; [1]) [µM] | EC50 (PPAR gamma; [1]) [µM] | EC50 (PPAR alpha; [2]) [µM] | EC50 (PPAR delta; [2]) [µM] | EC50 (PPAR gamma; [2]) [µM] |
| --- | --- | --- | --- | --- | --- | --- |
| {2-Methyl-4-[5-(4-trifluoromethyl-phenyl)-pyridin-3-ylmethylsulfanyl]-phenoxy}-acetic acid [Compound e] | – | – | – | > 3 | – | – |
